Here are results for one substance from US7598341B2, “Molecules that selectively home to vasculature of premalignant or malignant lesions of the pancreas and other organs” (Burnham Institue for Medical Research, priority 2003, dated 2009).

What all share (type): in vivo, mouse
Test [1] deals with endothelial cell and pericyte markers (MECA-32, NG2). The test can be described thus: Co-localization of fluorescein-conjugated peptides with vascular markers. The note with it: fluorescein-conjugated peptide i.v. The protocol:
To confirm that intravenous administration of phage libraries selects for phage carrying peptides that bind to endothelial molecules specific for the target vasculature, tissues were collected following i.v. infusion with the various fluorescein-conjugated peptides, sectioned, and evaluated with endothelial cell markers.
For immunohistochemistry, frozen slides were pre-incubated with blocking buffer (1×PNB from NEN Biosciences) for one hour, washed several times in 1×PBS and incubated with the primary antibody of interest overnight at 4° C. The cell-specific antibodies used were rat monoclonal anti-mouse CD31 (1:200; BD Pharmingen), rat monoclonal anti-mouse MECA-32 (1:200; BD Pharmingen), rabbit polyclonal anti-mouse NG2 (1:200; Chemicon), and rat monoclonal anti-mouse PDGFRb (CD140b) (1:200; eBioscience). The corresponding secondary antibodies; Cy-3 donkey anti-rabbit IgG and Rhodamine Red donkey anti-rat IgG (Jackson ImmunoResearch), were used at a 1:200 dilution and incubated for one hour at room temperature. The following species-matched immunoglobulins were used as negative controls; rabbit IgG (Vector Laboratories) and rat IgG (Jackson ImmunoResearch) at a 1:200 dilution. The slides were washed several times in 1×PBS and mounted in Vectashield Mounting Medium with DAPI (Vector Laboratories). Hematoxylin and eosin (H&E) staining was performed for histological grading of adjacent sections by standard methods, and lesions were graded as previously described (Lopez and Hanahan, 2002).
The primary analysis involved immunostaining with a mouse pan-endothelial cell antigen (MECA-32) antibody that recognizes a dimer of 50-55 kDa protein subunits present on all endothelial cells (Hallman et al., 1995; Leppink et al., 1989) (FIG. 3 B,C,H,I,N,O). Additional analyses involved immunostaining to reveal CD31/PE-CAM, or systemic infusion of a fluorescent-labeled lectin that binds to the endothelial lumen. In addition, tissue sections from peptide-infused mice were stained with an antibody recognizing NG2, a marker of the neovascular pericytes (Schlingemann et al., 1990, 1991) (FIG. 3 E,F,K,L,Q,R).

In test [2] the test system is RIP1-Tag2 pancreatic tumor, bTC3-derived subcutaneous transplant tumor, K14-HPV16 squamous cell carcinoma. The test can be described thus: Relative homing efficiency of individual phage in various tumor models (FIG. 4A). Conditions: phage from the RIP1-Tag2 tumor screen. The procedure:
(§1) To determine whether phage identified to home to pancreatic tumors also home to other types of tumors, these phage were tested using animals having various types of tumors, including bTC3 subcutaneous tumor and MDA MB-435 subcutaneous tumor. bTC3 transplant tumors arise following subcutaneous inoculation of nude mice with cultured islet tumor-derived (bTC3) cells (Efrat et al., 1988). Since the vasculature of a subcutaneously grown bTC3 tumor derives from skin, we also tested another subcutaneous transplant tumor, arising from inoculation of the MDA-MB-435 human breast carcinoma cell line. Finally, K14-HPV16 mice, another well-studied transgenic mouse model of cancer that develop tumors of the squamous epithelial cells of the skin (Arbeit et al., 1994; Coussens et al., 1996), was used to compare RIP1-Tag2 islet tumors to a tumor with similar multistage pathogenesis arising in a different tissue.
(§2) Tumors were dissected from the ear or chest of K14-HPV16 mice. For the bTC3 allograft models, 10^6 bTC3 tumor cells (Efrat et al., 1988) were inoculated under the skin of the rear flank of nu/nu mice in a BALB/c background and allowed to grow until approximately 5 mm in size, and then used for experimental analysis. MDA-MB-435 xenograft models were generated by inoculating 10^6 tumor cells subcutaneously in the chest of nu/nu Balb/c mice. Tumors were used for the homing/binding experiments at 8-12 weeks after injection of the tumor cells.
FIG. 4A is bar graph showing homing efficiency of individual phage to a pancreatic tumor in a RIP1-Tag2 mouse, a bTC3-derived subcutaneous transplant tumor in a nude mouse, and a squamous cell carcinoma in a K14-HPV16 mouse.

In test [3] the test system is MDA MB-435 subcutaneous tumor. Briefly: Homing to MDA-MB-435 subcutaneous tumor. The note with it: fluorescein-conjugated peptide i.v., FIG. 4B. The procedure: as §1, §2

“Also recorded” adds a separate entry of the source.

CRGRRST [linear homing peptide]: the “co-localization with MECA-32 or NG2 in adjacent exocrine pancreas or normal pancreatic islets” value in test [1] is “no co-localization”. Further, the “co-localization with endothelial cell and pericyte markers in RIP1-Tag2 islet lesions” value in test [1] (MECA-32, NG2, FIG. 3) is “some co-localization both with endothelial cell and pericyte markers; also recorded: co-localized both with the endothelial cell and pericyte markers”. Also, the “relative homing efficiencies in the various tumor models (category)” value in test [2] is “selectively home to RIP1-Tag2 tumors”. The “homing to MDA tumor” value in test [3] is listed as “did not home appreciably”.
